According to article PMC9668928, “Zandelisib (ME-401) in Japanese patients with relapsed or refractory indolent non-Hodgkin’s lymphoma: an open-label, multicenter, dose-escalation phase 1 study” (International Journal of Hematology, 2022):

System: Japanese patients with R/R iNHL
Assay: Phase 1 dose-escalation study: safety and tolerability (TEAEs, DLTs)
Type: in vivo
Description: Japanese patients aged ≥ 20 years with R/R iNHL histologically confirmed as FL, nodal MZL, extra-nodal MZL of mucosa-associated lymphoid tissue, small lymphocytic lymphoma, lymphoplasmacytic lymphoma, Waldenström’s macroglobulinemia, or equivalent, according to World Health Organization classification, were eligible for this study. Other key eligibility criteria included being PI3K inhibitor therapy-naïve and an Eastern Cooperative Oncology Group performance status of 0 or 1. Further details of inclusion and exclusion criteria are provided in Supplementary Table 1.
This was a multicenter, open-label, dose-escalation, phase 1 study in Japan. All patients received oral zandelisib once daily at the same time each day, at least 1 h before or 2 h after a meal (CS: continuous schedule). Each treatment cycle was 28 days. Definitions of the DLTs described in this study can be found in Supplementary Table 2. The observation period for DLTs was from day 1 of Cycle 1 to day 1 of Cycle 2. Zandelisib was administered until disease progression or unacceptable toxicity. In the event of an AE, patients could be switched to IDT. In the case of disease progression while receiving IDT, patients could be switched back to CS per the investigator’s discretion.
A starting dose of 45 mg was set for investigating patient safety. This study adopted a standard 3 + 3 design. […] If DLTs occurred in 2 or more patients, the study was planned to be suspended pending a safety evaluation. If a DLT occurred in 1 patient, 3 further patients were added to cohort 1. If DLTs occurred in 0/3 or 1/6 patients in cohort 1, dosing in cohort 2 commenced (n = 6; 60 mg/day). If the incidence of DLTs in cohort 2 was ≤ 1/6, the maximum tolerated dose was not determined, and the dose in cohort 2 was to be selected as the recommended Japanese phase 2 dose.
The primary endpoint was the safety [number of patients with treatment-emergent adverse events (TEAEs), based on Common Terminology Criteria for Adverse Events version 5.0] and tolerability (including laboratory values, vital signs, and electrocardiogram performance) of zandelisib in Japanese patients. Hepatobiliary disorder, aspartate/alanine (AST/ALT) increased, diarrhea/colitis, organizing pneumonia, stomatitis, or rash were defined as irAEs in this manuscript. Secondary endpoints included PK (plasma concentrations and PK parameters) and the efficacy of zandelisib. […] The PK parameters for Cycle 1 day 1 and Cycle 2 day 1 were calculated for each patient by non-compartmental analysis. PK parameters included maximum plasma drug concentration (Cmax), area under the plasma concentration–time curve (AUC) from time zero to the last measurable point (AUC0–t), the AUC from time zero to infinity (AUC0-inf), and terminal half-life (t1/2).

CN1CCC(c2ccccc2CC(C)(C)Nc2nc(N3CCOCC3)nc(-n3c(C(F)F)nc4ccccc43)n2)CC1 [zandelisib]
1 (33.3) n (%): TEAE Abdominal pain upper, All grades (45 mg, n = 3) | TEAE Amylase increased, All grades (45 mg, n = 3) | TEAE Anemia, All grades (45 mg, n = 3) | TEAE Arthralgia, All grades (45 mg, n = 3) | TEAE Back pain, All grades (45 mg, n = 3) | TEAE Blood and lymphatic system disorders (SOC), All grades (45 mg, n = 3) | TEAE Bradycardia, All grades (45 mg, n = 3) | TEAE CMV test positive, All grades (45 mg, n = 3) | TEAE Cardiac disorders (SOC), All grades (45 mg, n = 3) | TEAE Conjunctivitis, All grades (45 mg, n = 3) | TEAE Cytomegalovirus viremia, All grades (45 mg, n = 3) | TEAE Decreased appetite, All grades (45 mg, n = 3) | TEAE Decreased appetite, Grade ≥ 3 (45 mg, n = 3) | TEAE Diarrhea, Grade ≥ 3 (45 mg, n = 3) | TEAE Dry eye, All grades (45 mg, n = 3) | TEAE Dry skin, All grades (45 mg, n = 3) | TEAE Dysgeusia, All grades (45 mg, n = 3) | TEAE Dyspnea, All grades (45 mg, n = 3) | TEAE Dyspnea, Grade ≥ 3 (45 mg, n = 3) | TEAE Ear and labyrinth disorders (SOC), All grades (45 mg, n = 3) | TEAE Eosinophil count increased, All grades (45 mg, n = 3) | TEAE Eye disorders (SOC), All grades (45 mg, n = 3) | TEAE General disorders and administration site conditions (SOC), All grades (45 mg, n = 3) | TEAE Hepatic function abnormal, All grades (45 mg, n = 3) | TEAE Hepatobiliary disorders (SOC), All grades (45 mg, n = 3) | TEAE Herpes simplex, All grades (45 mg, n = 3) | TEAE Hypoesthesia, All grades (45 mg, n = 3) | TEAE Infusion site extravasation, All grades (45 mg, n = 3) | TEAE Insomnia, All grades (45 mg, n = 3) | TEAE Joint effusion, All grades (45 mg, n = 3) | TEAE Lymphocyte count decreased, Grade ≥ 3 (45 mg, n = 3) | TEAE Metabolism and nutrition disorders (SOC), All grades (45 mg, n = 3) | TEAE Metabolism and nutrition disorders (SOC), Grade ≥ 3 (45 mg, n = 3) | TEAE Muscle spasms, All grades (45 mg, n = 3) | TEAE Nausea, All grades (45 mg, n = 3) | TEAE Nervous system disorders (SOC), All grades (45 mg, n = 3) | TEAE Neutrophil count decreased, Grade ≥ 3 (45 mg, n = 3) | TEAE Oral herpes, All grades (45 mg, n = 3) | TEAE Organizing pneumonia, All grades (45 mg, n = 3) | TEAE Organizing pneumonia, Grade ≥ 3 (45 mg, n = 3)
2 patients: Grade 3 irAEs (45 mg)
0 n (%): TEAE ALT increased, Grade ≥ 3 (45 mg, n = 3) | TEAE AST increased, Grade ≥ 3 (45 mg, n = 3) | TEAE Abdominal discomfort, All grades (45 mg, n = 3) | TEAE Abdominal discomfort, Grade ≥ 3 (45 mg, n = 3) | TEAE Abdominal pain upper, Grade ≥ 3 (45 mg, n = 3) | TEAE Amylase increased, Grade ≥ 3 (45 mg, n = 3) | TEAE Anemia, Grade ≥ 3 (45 mg, n = 3) | TEAE Arthralgia, Grade ≥ 3 (45 mg, n = 3) | TEAE Back pain, Grade ≥ 3 (45 mg, n = 3) | TEAE Blepharitis, All grades (45 mg, n = 3) | TEAE Blepharitis, Grade ≥ 3 (45 mg, n = 3) | TEAE Blood and lymphatic system disorders (SOC), Grade ≥ 3 (45 mg, n = 3) | TEAE Blood creatinine increased, All grades (45 mg, n = 3) | TEAE Blood creatinine increased, Grade ≥ 3 (45 mg, n = 3) | TEAE Bradycardia, Grade ≥ 3 (45 mg, n = 3) | TEAE CMV test positive, Grade ≥ 3 (45 mg, n = 3) | TEAE Cardiac disorders (SOC), Grade ≥ 3 (45 mg, n = 3) | TEAE Conjunctivitis, Grade ≥ 3 (45 mg, n = 3) | TEAE Constipation, Grade ≥ 3 (45 mg, n = 3) | TEAE Cough, All grades (45 mg, n = 3) | TEAE Cough, Grade ≥ 3 (45 mg, n = 3) | TEAE Drug hypersensitivity, All grades (45 mg, n = 3) | TEAE Drug hypersensitivity, Grade ≥ 3 (45 mg, n = 3) | TEAE Drug-induced liver injury, All grades (45 mg, n = 3) | TEAE Drug-induced liver injury, Grade ≥ 3 (45 mg, n = 3) | TEAE Dry eye, Grade ≥ 3 (45 mg, n = 3) | TEAE Dry skin, Grade ≥ 3 (45 mg, n = 3) | TEAE Dysgeusia, Grade ≥ 3 (45 mg, n = 3) | TEAE Ear and labyrinth disorders (SOC), Grade ≥ 3 (45 mg, n = 3) | TEAE Eczema, All grades (45 mg, n = 3) | TEAE Eczema, Grade ≥ 3 (45 mg, n = 3) | TEAE Eosinophil count increased, Grade ≥ 3 (45 mg, n = 3) | TEAE Erythema multiforme, All grades (45 mg, n = 3) | TEAE Erythema multiforme, Grade ≥ 3 (45 mg, n = 3) | TEAE Eye disorders (SOC), Grade ≥ 3 (45 mg, n = 3) | TEAE Flank pain, All grades (45 mg, n = 3) | TEAE Flank pain, Grade ≥ 3 (45 mg, n = 3) | TEAE GGT increased, All grades (45 mg, n = 3) | TEAE GGT increased, Grade ≥ 3 (45 mg, n = 3) | TEAE General disorders and administration site conditions (SOC), Grade ≥ 3 (45 mg, n = 3) | TEAE Hepatic function abnormal, Grade ≥ 3 (45 mg, n = 3) | TEAE Hepatobiliary disorders (SOC), Grade ≥ 3 (45 mg, n = 3) | TEAE Herpes simplex, Grade ≥ 3 (45 mg, n = 3) | TEAE Herpes zoster, All grades (45 mg, n = 3) | TEAE Herpes zoster, Grade ≥ 3 (45 mg, n = 3) | TEAE Hypoesthesia, Grade ≥ 3 (45 mg, n = 3) | TEAE Hypogammaglobulinemia, Grade ≥ 3 (45 mg, n = 3) | TEAE Immune system disorders (SOC), Grade ≥ 3 (45 mg, n = 3) | TEAE Infections and infestations (SOC), Grade ≥ 3 (45 mg, n = 3) | TEAE Infusion site extravasation, Grade ≥ 3 (45 mg, n = 3) | TEAE Insomnia, Grade ≥ 3 (45 mg, n = 3) | TEAE Joint effusion, Grade ≥ 3 (45 mg, n = 3) | TEAE Muscle spasms, Grade ≥ 3 (45 mg, n = 3) | TEAE Musculoskeletal and connective tissue disorders (SOC), Grade ≥ 3 (45 mg, n = 3) | TEAE Nasopharyngitis, Grade ≥ 3 (45 mg, n = 3) | TEAE Nausea, Grade ≥ 3 (45 mg, n = 3) | TEAE Nervous system disorders (SOC), Grade ≥ 3 (45 mg, n = 3) | TEAE Oral herpes, Grade ≥ 3 (45 mg, n = 3) | TEAE Oropharyngeal pain, All grades (45 mg, n = 3)
3 (100.0) n (%): TEAE Investigations (SOC), All grades (45 mg, n = 3)
no deaths were observed: deaths (45 mg and 60 mg)
2 (66.7) n (%): TEAE ALT increased, All grades (45 mg, n = 3) | TEAE AST increased, All grades (45 mg, n = 3) | TEAE Constipation, All grades (45 mg, n = 3) | TEAE Diarrhea, All grades (45 mg, n = 3) | TEAE Gastrointestinal disorders (SOC), All grades (45 mg, n = 3) | TEAE Gastrointestinal disorders (SOC), Grade ≥ 3 (45 mg, n = 3) | TEAE Hypogammaglobulinemia, All grades (45 mg, n = 3) | TEAE Immune system disorders (SOC), All grades (45 mg, n = 3) | TEAE Infections and infestations (SOC), All grades (45 mg, n = 3) | TEAE Investigations (SOC), Grade ≥ 3 (45 mg, n = 3) | TEAE Lymphocyte count decreased, All grades (45 mg, n = 3) | TEAE Musculoskeletal and connective tissue disorders (SOC), All grades (45 mg, n = 3) | TEAE Nasopharyngitis, All grades (45 mg, n = 3) | TEAE Neutrophil count decreased, All grades (45 mg, n = 3)
